# Measured values from PMC4882559, “Novel Azetidine-Containing TZT-1027 Analogues as Antitumor Agents” (Marine Drugs, 2016).
# Columns and labels:
# [1] = tested on: A549 human lung carcinoma cell lines; experiment: Cancer cell proliferation inhibition (MTT assay), A549; type: cell-based
# Experimental: (§1) The following cell lines were used for the screening stage, obtained from American Type Culture Collection (ATCC, Manassas, VA, USA); HCT116 human colon cancer cells and A549 human lung carcinoma cell lines were cultured in RPMI 1640 medium supplemented with 10% FBS. Cell cultures were maintained in a humidified atmosphere of 5% CO2 at 37 °C. Cells were seeded at 2000 cells per well in 96-well plates in a volume of 200 μL per well. The test compounds were dissolved in DMSO and diluted with culture medium to different concentrations. After seeding for 24 h, the medium was removed, and […] of the test compound solution was added in duplicates and incubation continued for 72 h at 37 °C in a humidified atmosphere containing 5% CO2. Control cells were treated with vehicle alone. During the last 4 h of incubation, the cells were exposed to tetrazolium dye (MTT) solution (5 mg/mL, […] per well). The generated formazan crystals were dissolved in […] of dimethyl sulfoxide (DMSO), and the absorbance was read spectrophotometrically at 570 nm using an enzyme-linked immunosorbent assay plate reader. The data was calculated using Graph Pad Prism version 5.0 (GraphPad Softwrae, La Jolla, CA, USA). The IC50s were fitted using a non-linear regression model with a sigmoidal dose response.
# [2] = tested on: HCT116 human colon cancer cells; experiment: Cancer cell proliferation inhibition (MTT assay), HCT116; type: cell-based; details: Homo sapiens, HCT-116, 72 h incubation, mean ± SD of at least three independent experiments
# Experimental: as §1
# [3] = Liver microsomes metabolic stability, human
# [4] = Liver microsomes metabolic stability, rat
# [5] = Liver microsomes metabolic stability, mouse
# Human A549 xenograft = experiment: In vivo efficacy study, A549 xenograft model; parameters: species or system BALB/c athymic mice; details: 2 mg/kg iv once a day; for Tumor volume: n = 6, mean (SD on next line); for Relative tumor volume: RTV = Vt/V0, n = 6, mean ± SD
# Excerpt: Pathogen-free, 4–6 week-old, female BALB/c athymic mice (Shanghai SCXK Laboratory Animal Technology Co. Ltd., Shanghai, China) were housed under sterile conditions. Human A549 xenograft was established in the right flanks of athymic mice according to the protocol of the National Cancer Institute. When the tumor reached a volume of 100 mm^3, the mice were randomly assigned into control (n = 6 per group) and treatment groups (n = 6 per group). Control group were given lactate buffer, and treatment groups were iv administered with tested compounds. The size of tumor was measured individually on the indicated days. Tumor volume (V) was calculated as V = (length × width^2)/2. The individual relative tumor volume (RTV) was calculated as follows: RTV = Vt/V0, where Vt represented the last tumor size measurement and V0 represented the pre-dosing tumor size measurement. The animal experimental protocols were approved by the Animal Ethics Committee of School of Pharmacy, Fudan University and the mice were treated in accordance with international animal ethics guidelines.
# [6] = dose of 4 mg/kg; cited from earlier work
# Experimental: Further in vivo antitumor activities of 1a was evaluated in A549 xenograft models in mice via tail vein intravenous injection for 22 days. […] Considering of that, the maximum dose of 1a was chosen as 5 mg/kg. […] However, compound 1a could not achieve effective inhibition at all the dose levels (Figure 3b). TZT-1027 (2 mg/kg/day) inhibited tumor growth by 61% over the 22-day administration schedule, howe ... || In summary, we described the design and synthesis of nine TZT-1027 analogues based on the conformation restriction strategy. 3-Aryl-zetidines were used to replace the phenylethyl group at C-terminus. Two human cancer cell lines (A549, HCT116) were used to evaluate the potency of the synthesized compounds. […] Compound 1a could not achieve effective inhibition in A549 xenograft models at different dose levels.
compound,measurement,setting,value
"CC[C@H](C)[C@@H]([C@@H](CC(=O)N1CCC[C@H]1[C@H](OC)[C@@H](C)C(=O)N1CC(c2ccccc2C(C)C)C1)OC)N(C)C(=O)[C@@H](NC(=O)[C@@H](C(C)C)N(C)C)C(C)C [1d, (S)-2-((R)-2-(Dimethylamino)-3-methylbutanamido)-N-((3R,4S,5S)-1-((S)-2-((1R,2R)-3-(3-(2-isopropylphenyl)azetidin-1-yl)-1-methoxy-2-methyl-3-oxopropyl)pyrrolidin-1-yl)-3-methoxy-5-methyl-1-oxoheptan-4-yl)-N,3-dimethylbutanamide]",loss of potency against A549 cell lines,[1]; substituted phenyl analogues compared with 1a,about 60 fold
"CC(=O)O[C@@]12CO[C@@H]1C[C@H](O)[C@@]1(C)C(=O)[C@H](O)C3=C(C)[C@@H](OC(=O)[C@H](O)[C@@H](NC(=O)OC(C)(C)C)c4ccccc4)C[C@@](O)([C@@H](OC(=O)c4ccccc4)[C@H]21)C3(C)C [Docetaxel, reference compound]",IC50,"[1]; Homo sapiens, A549, MTT assay, 72 h incubation, mean ± SD of at least three independent experiments",23.5 ± 9.5 nM
same,IC50,[2],0.3 ± 0.1 nM
"O=C(c1ccc(F)cc1)C1CCN(CCn2c(=O)[nH]c3ccccc3c2=O)CC1 [Ketanserin, ketanserin, reference compound]",Clint,"[3]; Human, apparent intrinsic clearance, 1 μM",39.63 mL/min/kg
same,half-life at 1 μM,"[3]; human, liver microsomes",43.9 min
same,Clint,"[4]; Rat, apparent intrinsic clearance, 1 μM",159.00 mL/min/kg
same,half-life at 1 μM,"[4]; rat, liver microsomes",15.6 min
same,Clint,"[5]; Mouse, apparent intrinsic clearance, 1 μM",402.92 mL/min/kg
same,half-life at 1 μM,"[5]; mouse, liver microsomes",13.5 min
CC[C@H](C)[C@@H]([C@@H](CC(=O)N1CCC[C@H]1[C@H](OC)[C@@H](C)C(=O)NCCc1ccccc1)OC)N(C)C(=O)[C@@H](NC(=O)[C@H](C(C)C)N(C)C)C(C)C [TZT-1027],Tumor volume,Human A549 xenograft; day 1,147.31 mm3
same,Tumor volume,Human A549 xenograft; day 4,182.59 mm3
same,Relative tumor volume,Human A549 xenograft; day 7,1.48 ± 0.64
same,Tumor volume,Human A549 xenograft; day 7,196.64 mm3
same,Relative tumor volume,Human A549 xenograft; day 10,1.73 ± 0.78
same,Tumor volume,Human A549 xenograft; day 10,232.81 mm3
same,Relative tumor volume,Human A549 xenograft; day 13,2.09 ± 0.9
same,Tumor volume,Human A549 xenograft; day 13,275.81 mm3
same,Relative tumor volume,Human A549 xenograft; day 16,2.3 ± 0.9
same,Tumor volume,Human A549 xenograft; day 16,301.7 mm3
same,Relative tumor volume,Human A549 xenograft; day 19,2.6 ± 1.33
same,Tumor volume,Human A549 xenograft; day 19,346.59 mm3
same,Relative tumor volume,Human A549 xenograft; day 22,2.66 ± 1.11
same,Tumor volume,Human A549 xenograft; day 22,363.71 mm3
same,toxicity of a dose,[6],seemed to be toxic
